Data as given in US20070293486A1, “Alpha-Keto Carbonyl Calpain Inhibitors” (SANTHERA PHARMACEUTICALS (SCHWEIZ) AG, priority 2004, published 2007).

Columns and labels:
[1] = test system: cellular calpains in C2C12 myoblasts; assay: Calpain Inhibition Assay in C2C12 Myoblasts; format: cell-based; details: read-out: Calp I IC50 Myoblast
Procedure: This assay is aimed at monitoring the ability of the substance to inhibit cellular calpains. C2C12 myoblasts are grown in 96-well plates in growth medium (DMEM, 20% foetal calf serum) until they reach confluency. The growth medium is then replaced by fusion medium (DMEM, 5% horse serum). 24 hours later the fusion medium is replaced by fusion medium containing the test substances dissolved in 1 μl DMSO. After 2 hours of incubation at 37° C. the cells are loaded with the calpain fluorogenic substrate Suc-Leu-Tyr-AMC at 400 μM in 50 μl of a reaction buffer containing 135 mM NaCl; 5 mM KCl; 4 mM CaCl2; 1 mM MgCl2; 10 mM Glucose; 10 mM HEPES pH 7.25 for 20 min at room temperature. The calcium influx, necessary to activate the cellular calpains, is evoked by the addition of 50 μl reaction buffer containing 20 μM of the calcium ionophore Br-A-23187 (Molecular Probes). The fluorescence of the cleavage product AMC is measured as described above during 60 min at 37° C. at intervals of 1 min. The IC50 values are determined as described above. Comparison of the IC50 determined in the enzymatic calpain inhibition assay to the IC50 determined in the C2C12 myoblasts calpain inhibition assay, allows to evaluate the cellular uptake or the membrane permeability of the substance.

mdx mouse = assay: Longterm treatment of mdx mice (muscle histology); format: in vivo; details: for adverse effects upon longterm treatment: longterm treatment every 2nd day i.p.
Procedure: The mdx mouse is a well established animal model for Duchenne Muscular Dystrophy (Bulfield G., Siller W. G., Wight P. A., Moore K. J., X chromosome-linked muscular dystrophy (mdx) in the mouse, Proc. Natl. Acad. Sci. USA., 1984, 81(4), 1189-1192). Selected compounds were tested in longterm treatments of mdx mice, according to the procedures described below.
Mouse strains: C57BL/10scsn and C57BL/10scsn mdx mouse strains were purchased at The Jackson Laboratory (ME, USA) and bred inhouse. Mouse males were sacrificed at the age of 3 or 7 weeks by CO2 asphyxiation.
Treatment: Compounds were dissolved in 50% PEG, 50% saline solution and applied by i.p. injection.
Histology: Tibialis anterior (TA), quadriceps (Quad), and diaphragm (Dia) muscles were collected and mounted on cork supports using gum tragacanth (Sigma-Aldrich, Germany). The samples were snap-frozen in melting isopentane and stored at −80° C. 12 μm thick cryosections of the mid-belly region of muscles were prepared. For staining, sections were air dried and fixed with 4% PFA in PBS for 5 minutes, washed 3 times with PBS and incubated over night at 4° C. in PBS containing 2 μg/ml Alexa Fluor ™ 488 conjugated wheat-germ agglutinin (WGA-Alexa, Molecular Probes, Eugene, Oreg., USA) to stain membrane-bound and extracellular epitopes and 1 μg/ml 4′,6-diamidino-2-phenylindole (DAPI; Molecular Probes) to stain nuclei.
Image acquisition and analysis: Fluorescence microscopy images of both labels were acquired using a digital camera (ColorView II, Soft Imaging System, Münster, Germany) coupled to a fluorescence microscope (Vanox S, Olympus, Tokyo, Japan). Combination of these two stainings to a composite image, assembling of several images to a complete image of the entire muscle cross-section and further semi-automated analysis was performed using the image analysis program AnalySIS (Soft Imaging System). Image analysis of 1200-2900 muscle fibers in each section was performed in three steps: 1) determination of the muscle fiber boundaries, 2) determination of the muscle fiber size, and 3) determination of the percentage of muscle fibers containing centralized nuclei. Six different geometrical parameters were tested for the determination of the muscle fiber size: (a) the “minimal feret” (the minimum distance of parallel tangents at opposing borders of the muscle fiber), (b) the “area”, (c) the “minimal inner diameter” (the minimum diameter through the center of the muscle fiber), (d) the “minimal diameter” (the minimum diameter of a muscle fiber for angles in the range 0° through 179° with step width 1°, (e) the “minimal outer diameter” (the minimum diameter through the muscle fiber from outer border to outer border), and (f) the “perimeter”. The variance coefficient of the muscle fiber size is defined as follows: variance coefficient=(standard deviation of the muscle fiber size/mean of the muscle fiber size of the section)*[…]. For statistical analysis of different variance coefficient values Mann-Whitney U test was used.

[2] = test system: utrophin protein levels in human DMD myotubes; assay: Utrophin Expression Assay in Human Myotubes; format: cell-based; details: 50 nM test compound
Procedure: Utrophin induction was determined by a method which was similar to a method of 1. Courdier-Fruh et al., Neuromuscular Disord., 2002, 12, S95-S104. Primary human muscle cell cultures were prepared from muscle biopsies taken during orthopedic surgery from Duchenne patients (provided by the Association Francaise contre les Myopathies). Cultures were prepared and maintained according to standard protocols. Induction of utrophin expression in human DMD myotubes was assayed at 50 nM or 500 nM of test compound added in differentiation medium. Normalized utrophin protein levels are determined after 56 d of incubation by cell-based ELISA with a mouse monoclonal antibody to the aminoterminal portion of utrophin (NCL-DRP2, Novocastra Laboratories). For calibration, the cell density and differentiation was determined by absorbance measurements of the total dehydrogenase enzyme activity in each well using the calorimetric CellTiter 96®AQ One Solution Reagent Proliferation Assay (Promega) according to the manufacturer's recommendation. Subsequently, cells were fixed, washed, permeabilized with 0.5% (v/v) Triton X-100 and unspecific antibody binding-sites blocked by standard procedures. Utrophin protein levels were determined immunologically with utrophin-specific primary antibody and with an appropriate peroxidase-coupled secondary antibody (Jackson ImmunoResearch Laboratories) using QuantaBlu™ Fluorogenic Peroxidase Substrate Kit (Pierce) for detection. Fluorescence measurements were carried out with a multilabel counter (Wallac) at λex=355 nm and at λem=460 nm. The primary readout of this signal is presented in arbitrary units. For calibration, the arbitrary units representing the relative utrophin protein content of each well was divided by the corresponding cell-titer absorbance value to correct for cell density. For comparison between experiments, the cell-titer corrected readout for utrophin protein content in each well was expressed in percent of solvent treated control cultures (set to 100%), i.e. data are % utrophin protein levels compared to DMSO solvent (N=4).

[3] = 20 mg/kg every 2nd day i.p., 3 week old mice, 4 weeks treatment, diaphragm, vs vehicle mdx controls

Row | IC50 [1] | melting point | Structure (SMILES) | decrease in the variance coefficient of the muscle fiber size in the Dia (mdx mouse; [3]) | adverse effects upon longterm treatment (mdx mouse) | UTR Induction @50 nM [2] | decrease in the variance coefficient of the muscle fiber size in the Dia (mdx mouse; 2 mg/kg every 2nd day i.p., diaphragm, vs vehicle mdx controls) | reduction of the percentage of centralized nuclei in the Dia (mdx mouse; 20 mg/kg every 2nd day i.p., diaphragm, vs vehicle mdx controls) | decrease in the variance coefficient of the muscle fiber size in the Quad (mdx mouse; 20 mg/kg every 2nd day i.p., quadriceps, vs vehicle mdx controls)
1 | 0.21 µM | – | CCNC(=O)C(=O)[C@H](Cc1ccc(Cl)cc1)NC(=O)[C@@H](NC(=O)[C@H](Cc1ccccc1)NC(=O)CCCCC1CCS[S+]1[O-])C(C)C (some centres unmarked) [Example 2] | 26% | No prominent adverse effects | – | – | – | –
2 | 0.04 µM | 188 to 190 °C | CCNC(=O)C(=O)C(Cc1ccc(OC)cc1)NC(=O)C(CC(C)C)NC(=O)C(Cc1cccc2ccccc12)NC(=O)CCCCC1CCSS1 (centres unmarked) [Example 637] | 34% | No prominent adverse effects | 121% | 33% | 34% | 32%
